Measured values: patent US6300337A, “Acetamide derivative and use thereof” (Nippon Kayaku Kabushiki Kaisha, priority 1998, dated 2001)

Target: T1, human chymase (Homo sapiens, UniProt P23946)
T1 construct: 60 g human tonsillar gland was finely divided by scissors and a scalpel; from tissue; host or cells: human tonsillar gland
T1 sequence (P23946 22-247): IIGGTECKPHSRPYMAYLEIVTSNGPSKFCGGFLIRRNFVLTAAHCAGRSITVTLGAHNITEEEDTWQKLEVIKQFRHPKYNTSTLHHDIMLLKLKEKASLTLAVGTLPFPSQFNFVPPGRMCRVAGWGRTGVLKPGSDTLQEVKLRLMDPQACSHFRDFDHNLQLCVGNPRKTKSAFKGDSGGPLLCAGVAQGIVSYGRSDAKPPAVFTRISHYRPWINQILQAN
Test: inhibitory activity on human chymase (angiotensin I as substrate, angiotensin II determined by HPLC)
Type: biochemical
Settings: for inhibitory activity on chymase (in words): chymase species not given; for IC50: first table, pH 8.0, 37° C., 15 min, read-out: 50% Inhibitory concentration (IC50) human chymase
From the text: It is known that chymase is present in tissues of various animals, and its isolation and purification methods are described in Anal. Biochem., 137, 449 (1984) and FEBS Letters, 323, 119 (1993). In the present invention, chymase was purified by the methods described in these literatures, and the present compounds were examined for inhibitory activity on human chymase or dog chymase. The specific methods are as follows:
60 g human tonsillar gland was finely divided by scissors and a scalpel, suspended in 0.1 M phosphate buffer (pH 8.0), and disrupted by a Polytron homogenizer for 5 minutes to prepare a crude chymase enzyme solution. The solution was centrifuged at 22000×g for 30 min, and the precipitate was used as a chymase enzyme fraction. The precipitate was washed by repeating the above procedure twice, and then suspended in 0.1 M phosphate buffer (pH 8.0) containing 2 M sodium chloride and 5% ammonium sulfate. The suspension was centrifuged at 27000×g for 20 min to give a supernatant as a chymase fraction. The supernatant was concentrated by ultrafiltration, applied to a G2000SW-XL column (6.0×300 mm), and eluted with 0.1 M phosphate buffer (pH 8.0). An active fraction decomposing succinyl leucyl leucyl valyl tyrosyl methylcoumarylamide (hereinafter referred to as the synthetic chymase substrate, made by Peptide Kenkyusho) was recovered, concentrated and used as a purified human chymase for the following activity measurement.
The inhibitory activity on the human chymase and dog chymase was measured using angiotensin I (made by Peptide Kenkyusho) for a substrate. 200 μl of 0.15 M Tris-HCl buffer (pH 8.0) containing 0.1 mM angiotensin I, 0.0002 μl of human or dog chymase solution and 2 μl of a dimethylsulfoxide solution of the present compound were added into a 1.5 ml test tube and incubated at 37° C. for 15 min. At the end of the reaction, produced angiotensin II was immediately determined by high performance liquid chromatography […] the chymase activity to calculate 50% inhibitory concentration (IC50: nM).
The test was conducted several times. Chymase was prepared for each test in the manner described above. The compounds prepared in the above-described Examples were used for the test.

inhibitory activity on chymase (in words) | IC50 [nM] | Compound
powerful inhibitory activity on chymase | 26 | CC(=O)OCc1cnc(-c2ccccc2)n(CC(=O)NC(Cc2ccccc2)C(=O)C(=O)CCCOc2ccccn2)c1=O (stereo not shown) [Compound 1, 2-(5-acetyloxymethyl-4-oxo-2-phenyl-3,4-dihydro-pyrimidin-3-yl)-N-{2,3-dioxo-1-phenylmethyl-6-(2-pyridyloxy)}hexylacetamide]
powerful inhibitory activity on chymase | 27 | O=C(Cn1c(-c2ccccc2)ncc(CO)c1=O)NC(Cc1ccccc1)C(=O)C(=O)CCCOc1ccccn1 (stereo not shown) [Compound 2, 2-(5-hydroxymethyl-4-oxo-2-phenyl-3,4-dihydropyrimidin-3-yl)-N-{2,3-dioxo-1-phenylmethyl-6-(2-pyridyloxy)} hexylacetamide]
powerful inhibitory activity on chymase | 22 | COCc1cnc(-c2ccccc2)n(CC(=O)NC(Cc2ccccc2)C(=O)C(=O)CCCOc2ccccn2)c1=O (stereo not shown) [Compound 3, 2-(5-methoxymethyl-4-oxo-2-phenyl-3,4-dihydropyrimidin-3-yl)-N-{2,3-dioxo-1-phenylmethyl-6-(2-pyridyloxy)} hexylacetamide]
– | 490 | CCOC(=O)c1cnc(-c2ccccc2)n(CC(=O)NC(Cc2ccccc2)C(=O)C(=O)CCCOc2ccccn2)c1=O (stereo not shown) [Compound 4, 2-(5-ethoxycarbonyl-4-oxo-2-phenyl-3,4-dihydro-pyrimidin-3-yl)-N-{2,3-dioxo-1-phenylmethyl-6-(2-pyridyl-oxy)}hexylacetamide]
